Test results taken from US11498896B2 (The Broad Institute, Inc., priority 2014, dated 2022).
pEC50, pIC50: −log10 of the molar value.

Legend:
human D2R/β-arrestin [1] = target: T1, human D2R/β-arrestin (Homo sapiens (Human), UniProt P14416); test: β-arrestin agonist assay (PathHunter); format: cell-based; details: CHO-K1 cells expressing human D2R/β-arrestin; agonist mode
Description: The detection reagent (9.6 μL, Buffer:Emerald II:Galactor-Star in a 19:5:1 ratio, i.e., 14.06 mL:3.7 mL:0.74 mL=18.5 mL) was then added to the agonist plates.

human D2R/β-arrestin [2] = target: T1, human D2R/β-arrestin; test: Gi/cAMP agonist assay (Lance Ultra cAMP, forskolin); format: cell-based; details: CHO-K1 cells expressing human D2R/β-arrestin; agonist mode, 2.5 μM forskolin
Description: Eu-cAMP tracer solution (10 μl, PerkinElmer, 360 μl of Tracer in 17.64 ml kit buffer) and ULight-anti-cAMP solution (10 μl, 120 μL antibody in 17.88 ml kit buffer) was then added to each well.

human D2R/β-arrestin [3] = target: T1, human D2R/β-arrestin; test: cell-based; details: β-arrestin Antagonist, CHO-K1 cells expressing human D2R/β-arrestin; antagonist mode, quinpirole 130 nM
human D2R/β-arrestin [4] = target: T1, human D2R/β-arrestin; test: cell-based; details: cAMP Antagonist, CHO-K1 cells expressing human D2R/β-arrestin; antagonist mode, 2.5 μM forskolin and 2.7 nM quinpirole

T1 sequence (P14416 whole entry): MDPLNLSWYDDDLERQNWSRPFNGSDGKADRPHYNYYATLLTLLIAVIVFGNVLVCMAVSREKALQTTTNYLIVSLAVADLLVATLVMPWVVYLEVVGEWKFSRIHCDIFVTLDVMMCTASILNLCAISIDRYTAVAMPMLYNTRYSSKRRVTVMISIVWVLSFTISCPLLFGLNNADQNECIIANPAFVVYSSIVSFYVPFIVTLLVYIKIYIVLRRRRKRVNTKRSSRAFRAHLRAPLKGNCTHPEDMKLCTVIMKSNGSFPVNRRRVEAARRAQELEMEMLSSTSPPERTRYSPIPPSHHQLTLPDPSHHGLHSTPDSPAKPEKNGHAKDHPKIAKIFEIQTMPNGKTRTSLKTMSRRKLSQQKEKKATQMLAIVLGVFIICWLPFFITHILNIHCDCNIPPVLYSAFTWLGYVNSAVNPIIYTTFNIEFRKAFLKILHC

Row | Compound | pEC50 (human D2R/β-arrestin [1]) | pEC50 (human D2R/β-arrestin [2]) | pIC50 (human D2R/β-arrestin [3]) | pIC50 (human D2R/β-arrestin [4])
1 | CC1(Oc2ccc(Cl)cc2)CCN(CCOc2ccncc2C(F)(F)F)CC1 [Compound 167, 4-(2-(4-(4-chlorophenoxy)-4-methylpiperidin-1-yl)ethoxy)-3-(trifluoromethyl)pyridine] | < 4.52 | 5.00 to 6.00 | 5.00 to 6.00 | 5.00 to 6.00
2 | CC1(Oc2ccc(Cl)cc2)CCN(CCNc2ccccc2C(F)(F)F)CC1 [Compound 168, N-(2-(4-(4-chlorophenoxy)-4-methylpiperidin-1-yl)ethyl)-2-(trifluoromethyl) aniline] | < 4.52 | < 4.52 | 5.00 to 6.00 | 5.00 to 6.00
3 | CN(CCN1CCC(C)(Oc2ccc(Cl)cc2)CC1)c1ccccc1C(F)(F)F [Compound 169, N-(2-(4-(4-chlorophenoxy)-4-methylpiperidin-1-yl)ethyl)-N-methyl-2-(trifluoromethyl)aniline] | < 4.52 | < 4.52 | 5.00 to 6.00 | 6.00 to 7.00
4 | CC(=O)N(CCN1CCC(C)(Oc2ccc(Cl)cc2)CC1)c1ccccc1C(F)(F)F [Compound 170, N-(2-(4-(4-chlorophenoxy)-4-methylpiperidin-1-yl)ethyl)-N-(2-(trifluoromethyl)phenyl)acetamide] | < 4.52 | < 4.52 | < 4.52 | < 4.52
5 | CC1(Oc2ccc(Cl)cc2)CCN(CCOc2ccc3cccc(C(F)(F)F)c3n2)CC1 [Compound 171, 2-(2-(4-(4-chlorophenoxy)-4-methylpiperidin-1-yl)ethoxy)-8-(trifluoromethyl)quinoline] | < 4.52 | 6.00 to 7.00 | < 4.52 | < 4.52
6 | CC1(Oc2ccc(Cl)cc2)CCN(CCn2c(=O)ccc3cccc(C(F)(F)F)c32)CC1 [Compound 172, 1-(2-(4-(4-chlorophenoxy)-4-methylpiperidin-1-yl)ethyl)-8-(trifluoromethyl)quinolin-2(1H)-one] | < 4.52 | 5.00 to 6.00 | < 4.52 | < 4.52
7 | CC1(Oc2ccccc2)CCN(CCOc2ccncc2)CC1 [Compound 173, 4-(2-(4-methyl-4-phenoxypiperidin-1-yl)ethoxy)pyridine] | 5.00 to 6.00 | 6.00 to 7.00 | < 4.52 | < 4.52
8 | CC1(Oc2ccccc2)CCN(CCOc2ccccn2)CC1 [Compound 174, 2-(2-(4-methyl-4-phenoxypiperidin-1-yl)ethoxy)pyridine] | 6.00 to 7.00 | > 7.00 | < 4.52 | < 4.52
9 | CC1(Oc2ccccc2)CCN(CCOc2cccc3[nH]ccc23)CC1 [Compound 175, 4-(2-(4-methyl-4-phenoxypiperidin-1-yl)ethoxy)-1H-indole] | 6.00 to 7.00 | > 7.00 | > 7.00 | < 4.52
10 | CC(C)C1(O)CCN(CCOc2ccccc2C(F)(F)F)CC1 [Compound 176, 4-isopropyl-1-(2-(2-(trifluoromethyl)phenoxy)ethyl)piperidin-4-ol] | < 4.52 | < 4.52 | 6.00 to 7.00 | > 7.00
11 | CC1(O)CCN(C2CCCN(c3ccccc3C(F)(F)F)C2)CC1 (stereo not drawn) [Compound 177, 4-methyl-1′-(2-(trifluoromethyl)phenyl)-[1,3′-bipiperidin]-4-ol] | < 4.52 | < 4.52 | 5.00 to 6.00 | 5.00 to 6.00
12 | Clc1ccc(N2CCCC23CCN(CC2COc4ccccc4O2)CC3)cc1 (stereo not drawn) [Compound 178, 1-(4-chlorophenyl)-8-((2,3-dihydrobenzo[b][1,4]dioxin-2-yl)methyl)-1,8-diazaspiro[4.5]decane] | < 4.52 | < 4.52 | > 7.00 | > 7.00
13 | FC(F)(F)c1ccccc1OCCN1CCC2(CC1)Cc1ccccc1O2 [Compound 179, 1′-(2-(2-(trifluoromethyl)phenoxy)ethyl)-3H-spiro[benzofuran-2,4′-piperidine]] | < 4.52 | < 4.52 | 5.00 to 6.00 | 6.00 to 7.00
14 | CC1(Oc2ccc(Cl)cc2)CCN(CCOc2cccc(F)c2)C1 (stereo not drawn) [Compound 180, 3-(4-chlorophenoxy)-1-(2-(3-fluorophenoxy)ethyl)-3-methylpyrrolidine] | < 4.52 | > 7.00 | 5.00 to 6.00 | < 4.52
15 | c1ccc(OCCN2CCC3(Cc4ccccc4O3)C2)cc1 (stereo not drawn) [Compound 181, 1′-(2-phenoxyethyl)-3H-spiro[benzofuran-2,3′-pyrrolidine]] | < 4.52 | < 4.52 | 5.00 to 6.00 | > 7.00
16 | CC1(Oc2ccc(Cl)cc2)CCN(CCOc2cccnc2)CC1 [Compound 182, 3-(2-(4-(4-chlorophenoxy)-4-methylpiperidin-1-yl)ethoxy)pyridine] | 6.00 to 7.00 | > 7.00 | < 4.52 | < 4.52
17 | CC1(Oc2ccc(Cl)cc2)CCN(CCOc2ccncc2)CC1 [Compound 183, 4-(2-(4-(4-chlorophenoxy)-4-methylpiperidin-1-yl)ethoxy)pyridine] | 5.00 to 6.00 | 6.00 to 7.00 | 5.00 to 6.00 | < 4.52
18 | CC1(Oc2ccc(Cl)cc2)CCN(CCOc2ccc(C(F)(F)F)c(O)c2)CC1 [Compound 184, 5-(2-(4-(4-chlorophenoxy)-4-methylpiperidin-1-yl)ethoxy)-2-(trifluoromethyl)phenol] | < 4.52 | 5.00 to 6.00 | 4.52 to 5.00 | < 4.52
19 | CC1(Oc2ccc(Cl)cc2)CCN(CCOc2ccc(C#N)cc2)CC1 [Compound 185, 4-(2-(4-(4-chlorophenoxy)-4-methylpiperidin-1-yl)ethoxy)benzonitrile] | < 4.52 | 5.00 to 6.00 | 4.52 to 5.00 | < 4.52
20 | CC1(Oc2ccc(Cl)cc2)CCN(CCOc2cn[nH]c2)CC1 [Compound 186, 1-(2-((1H-pyrazol-4-yl)oxy)ethyl)-4-(4-chlorophenoxy)-4-methylpiperidine] | 5.00 to 6.00 | 6.00 to 7.00 | 5.00 to 6.00 | 6.00 to 7.00
21 | CC(=O)c1cc(F)ccc1OCCN1CCC(C)(Oc2ccc(Cl)cc2)CC1 [Compound 187, 1-(2-(2-(4-(4-chlorophenoxy)-4-methylpiperidin-1-yl)ethoxy)-5-fluorophenyl)ethan-1-one] | < 4.52 | 6.00 to 7.00 | 5.00 to 6.00 | 5.00 to 6.00
22 | COc1ccccc1OCCN1CCC(C)(Oc2ccc(Cl)cc2)CC1 [Compound 188, 4-(4-chlorophenoxy)-1-(2-(2-methoxyphenoxy)ethyl)-4-methylpiperidine] | < 4.52 | 6.00 to 7.00 | 6.00 to 7.00 | 5.00 to 6.00
23 | COc1cc(F)c(F)cc1OCCN1CCC(C)(Oc2ccc(Cl)cc2)CC1 [Compound 189, 4-(4-chlorophenoxy)-1-(2-(4,5-difluoro-2-methoxyphenoxy)ethyl)-4-methylpiperidine] | < 4.52 | 5.00 to 6.00 | 5.00 to 6.00 | 5.00 to 6.00
24 | CC(C)Oc1ccc(F)cc1OCCN1CCC(C)(Oc2ccc(Cl)cc2)CC1 [Compound 190, 4-(4-chlorophenoxy)-1-(2-(5-fluoro-2-isopropoxyphenoxy)ethyl)-4-methylpiperidine] | < 4.52 | 6.00 to 7.00 | 5.00 to 6.00 | 6.00 to 7.00
